Source: ChEMBL document CHEMBL5131403, “Synthesis and structure-activity relationship studies of 1,5-isomers of triazole-pyrrolopyrimidine as selective Janus kinase 1 (JAK1) inhibitors” (Bioorg Med Chem Lett, 2022)

Columns and labels:
[1] = molecular target: T1, Tyrosine-protein kinase JAK2 (Homo sapiens, UniProt O60674); test: Inhibition of JAK2 (unknown origin) at 1 uM by biochemical assay relative to control
[2] = molecular target: T2, Tyrosine-protein kinase JAK3 (Homo sapiens) (UniProt P52333); test: Inhibition of JAK3 (unknown origin) at 1 uM by biochemical assay relative to control
T2 sequence (whole entry): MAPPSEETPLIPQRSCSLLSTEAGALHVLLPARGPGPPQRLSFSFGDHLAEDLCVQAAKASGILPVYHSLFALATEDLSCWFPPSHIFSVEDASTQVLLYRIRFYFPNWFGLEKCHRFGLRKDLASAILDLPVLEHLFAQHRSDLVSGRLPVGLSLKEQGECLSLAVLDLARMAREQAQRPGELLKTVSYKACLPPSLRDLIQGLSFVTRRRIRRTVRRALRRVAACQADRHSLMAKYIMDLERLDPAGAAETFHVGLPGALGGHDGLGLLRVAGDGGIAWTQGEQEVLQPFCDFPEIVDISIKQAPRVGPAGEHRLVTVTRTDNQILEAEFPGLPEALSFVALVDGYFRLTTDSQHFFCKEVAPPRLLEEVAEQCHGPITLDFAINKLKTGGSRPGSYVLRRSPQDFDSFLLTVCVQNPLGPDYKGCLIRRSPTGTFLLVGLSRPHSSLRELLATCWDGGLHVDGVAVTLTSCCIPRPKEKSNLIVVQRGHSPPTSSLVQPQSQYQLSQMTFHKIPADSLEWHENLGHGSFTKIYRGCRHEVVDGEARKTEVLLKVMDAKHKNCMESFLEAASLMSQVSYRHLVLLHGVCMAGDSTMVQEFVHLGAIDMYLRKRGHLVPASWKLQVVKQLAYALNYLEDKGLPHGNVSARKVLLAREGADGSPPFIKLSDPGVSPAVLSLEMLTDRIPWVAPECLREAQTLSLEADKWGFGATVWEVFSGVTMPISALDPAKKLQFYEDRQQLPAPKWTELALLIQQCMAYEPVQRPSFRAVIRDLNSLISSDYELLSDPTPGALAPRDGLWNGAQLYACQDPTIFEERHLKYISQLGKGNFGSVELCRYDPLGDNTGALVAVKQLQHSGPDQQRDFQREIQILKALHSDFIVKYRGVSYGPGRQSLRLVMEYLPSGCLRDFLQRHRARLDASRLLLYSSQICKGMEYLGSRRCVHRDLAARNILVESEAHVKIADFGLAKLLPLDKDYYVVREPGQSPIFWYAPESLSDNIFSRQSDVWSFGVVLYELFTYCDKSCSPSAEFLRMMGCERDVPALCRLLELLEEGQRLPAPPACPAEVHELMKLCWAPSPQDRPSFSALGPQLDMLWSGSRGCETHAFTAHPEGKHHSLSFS

[3] = molecular target: T3, Tyrosine-protein kinase JAK1 (Homo sapiens, UniProt P23458); test: Inhibition of JAK1 (unknown origin) at 1 uM by biochemical assay relative to control
Homo sapiens [4] = species: Homo sapiens; test: Selectivity index, ratio of inhibition of JAK1 (unknown origin) to inhibition of JAK3 (unknown origin)
Homo sapiens [5] = species: Homo sapiens; test: Selectivity index, ratio of inhibition of JAK1 (unknown origin) to inhibition of JAK2 (unknown origin)
[6] = molecular target: Non-receptor tyrosine-protein kinase TYK2 (Homo sapiens) (UniProt P29597); test: Inhibition of TYK2 (unknown origin) at 1 uM by biochemical assay relative to control
[7] = molecular target: T3, Tyrosine-protein kinase JAK1; test: Inhibition of JAK1 (unknown origin) by biochemical assay
[8] = molecular target: T1, Tyrosine-protein kinase JAK2; test: Inhibition of JAK2 (unknown origin) by biochemical assay
Homo sapiens [9] = species: Homo sapiens; test: Selectivity index, ratio of IC50 for inhibition of JAK2 (unknown origin) to IC50 for inhibition of JAK1 (unknown origin)

T1 sequence (O60674 whole entry): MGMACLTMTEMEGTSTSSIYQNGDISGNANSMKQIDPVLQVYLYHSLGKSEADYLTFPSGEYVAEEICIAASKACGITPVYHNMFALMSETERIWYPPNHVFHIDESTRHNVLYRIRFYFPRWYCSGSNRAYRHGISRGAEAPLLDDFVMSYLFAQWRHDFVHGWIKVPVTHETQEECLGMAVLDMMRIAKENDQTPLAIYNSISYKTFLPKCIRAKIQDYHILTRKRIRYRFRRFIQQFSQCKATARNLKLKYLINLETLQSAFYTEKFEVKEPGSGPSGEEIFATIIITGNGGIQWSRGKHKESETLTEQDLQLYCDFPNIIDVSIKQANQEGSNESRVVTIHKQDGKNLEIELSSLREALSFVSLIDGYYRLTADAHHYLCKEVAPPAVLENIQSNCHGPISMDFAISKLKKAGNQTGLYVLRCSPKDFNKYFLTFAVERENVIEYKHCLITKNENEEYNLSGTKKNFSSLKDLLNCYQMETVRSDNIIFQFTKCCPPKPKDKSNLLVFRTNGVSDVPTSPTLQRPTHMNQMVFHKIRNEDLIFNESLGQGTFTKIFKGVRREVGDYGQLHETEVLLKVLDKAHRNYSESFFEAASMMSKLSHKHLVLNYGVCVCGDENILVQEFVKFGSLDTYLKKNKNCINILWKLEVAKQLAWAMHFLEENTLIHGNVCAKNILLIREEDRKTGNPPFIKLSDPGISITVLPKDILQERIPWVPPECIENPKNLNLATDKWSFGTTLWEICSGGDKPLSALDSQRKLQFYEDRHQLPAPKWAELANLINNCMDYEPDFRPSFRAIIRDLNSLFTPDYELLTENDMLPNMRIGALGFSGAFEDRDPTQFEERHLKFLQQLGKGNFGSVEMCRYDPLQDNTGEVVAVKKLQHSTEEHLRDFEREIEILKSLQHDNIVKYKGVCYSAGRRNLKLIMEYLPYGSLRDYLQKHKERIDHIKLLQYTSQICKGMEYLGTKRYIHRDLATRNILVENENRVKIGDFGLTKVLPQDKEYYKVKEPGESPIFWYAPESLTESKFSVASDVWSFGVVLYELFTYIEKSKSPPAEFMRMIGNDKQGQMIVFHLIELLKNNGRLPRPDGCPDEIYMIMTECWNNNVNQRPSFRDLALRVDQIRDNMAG
T3 sequence (P23458 whole entry): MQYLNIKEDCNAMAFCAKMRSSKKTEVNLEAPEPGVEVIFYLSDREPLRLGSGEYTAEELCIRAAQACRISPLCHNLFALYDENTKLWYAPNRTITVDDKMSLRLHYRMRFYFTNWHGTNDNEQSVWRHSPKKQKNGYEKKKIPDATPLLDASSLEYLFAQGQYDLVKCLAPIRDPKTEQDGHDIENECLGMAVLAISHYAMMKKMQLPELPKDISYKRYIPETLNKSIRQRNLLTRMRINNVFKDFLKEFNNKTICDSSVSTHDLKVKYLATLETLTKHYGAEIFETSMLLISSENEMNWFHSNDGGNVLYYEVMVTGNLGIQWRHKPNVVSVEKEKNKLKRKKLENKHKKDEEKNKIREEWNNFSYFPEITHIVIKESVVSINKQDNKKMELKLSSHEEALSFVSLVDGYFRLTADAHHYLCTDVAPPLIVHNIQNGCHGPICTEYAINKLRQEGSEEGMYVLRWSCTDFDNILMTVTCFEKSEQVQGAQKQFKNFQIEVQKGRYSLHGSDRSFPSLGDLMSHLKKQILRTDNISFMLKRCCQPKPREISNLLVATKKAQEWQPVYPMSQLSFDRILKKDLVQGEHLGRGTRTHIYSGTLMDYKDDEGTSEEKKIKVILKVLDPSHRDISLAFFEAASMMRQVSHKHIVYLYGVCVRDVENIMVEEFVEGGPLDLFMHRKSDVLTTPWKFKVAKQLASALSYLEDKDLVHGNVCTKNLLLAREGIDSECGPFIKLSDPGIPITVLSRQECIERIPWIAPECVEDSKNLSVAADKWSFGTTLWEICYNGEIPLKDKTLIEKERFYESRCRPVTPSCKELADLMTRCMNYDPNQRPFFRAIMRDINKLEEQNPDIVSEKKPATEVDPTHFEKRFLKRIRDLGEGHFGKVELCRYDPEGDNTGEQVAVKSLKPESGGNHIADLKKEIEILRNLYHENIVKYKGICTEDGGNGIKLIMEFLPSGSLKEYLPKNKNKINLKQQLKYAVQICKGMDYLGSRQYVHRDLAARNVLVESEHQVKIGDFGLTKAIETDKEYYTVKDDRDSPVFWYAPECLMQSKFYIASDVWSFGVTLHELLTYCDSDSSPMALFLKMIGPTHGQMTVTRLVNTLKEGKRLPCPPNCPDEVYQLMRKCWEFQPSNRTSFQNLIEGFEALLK
Chain of Non-receptor tyrosine-protein kinase TYK2 (Homo sapiens) (P29597 whole entry): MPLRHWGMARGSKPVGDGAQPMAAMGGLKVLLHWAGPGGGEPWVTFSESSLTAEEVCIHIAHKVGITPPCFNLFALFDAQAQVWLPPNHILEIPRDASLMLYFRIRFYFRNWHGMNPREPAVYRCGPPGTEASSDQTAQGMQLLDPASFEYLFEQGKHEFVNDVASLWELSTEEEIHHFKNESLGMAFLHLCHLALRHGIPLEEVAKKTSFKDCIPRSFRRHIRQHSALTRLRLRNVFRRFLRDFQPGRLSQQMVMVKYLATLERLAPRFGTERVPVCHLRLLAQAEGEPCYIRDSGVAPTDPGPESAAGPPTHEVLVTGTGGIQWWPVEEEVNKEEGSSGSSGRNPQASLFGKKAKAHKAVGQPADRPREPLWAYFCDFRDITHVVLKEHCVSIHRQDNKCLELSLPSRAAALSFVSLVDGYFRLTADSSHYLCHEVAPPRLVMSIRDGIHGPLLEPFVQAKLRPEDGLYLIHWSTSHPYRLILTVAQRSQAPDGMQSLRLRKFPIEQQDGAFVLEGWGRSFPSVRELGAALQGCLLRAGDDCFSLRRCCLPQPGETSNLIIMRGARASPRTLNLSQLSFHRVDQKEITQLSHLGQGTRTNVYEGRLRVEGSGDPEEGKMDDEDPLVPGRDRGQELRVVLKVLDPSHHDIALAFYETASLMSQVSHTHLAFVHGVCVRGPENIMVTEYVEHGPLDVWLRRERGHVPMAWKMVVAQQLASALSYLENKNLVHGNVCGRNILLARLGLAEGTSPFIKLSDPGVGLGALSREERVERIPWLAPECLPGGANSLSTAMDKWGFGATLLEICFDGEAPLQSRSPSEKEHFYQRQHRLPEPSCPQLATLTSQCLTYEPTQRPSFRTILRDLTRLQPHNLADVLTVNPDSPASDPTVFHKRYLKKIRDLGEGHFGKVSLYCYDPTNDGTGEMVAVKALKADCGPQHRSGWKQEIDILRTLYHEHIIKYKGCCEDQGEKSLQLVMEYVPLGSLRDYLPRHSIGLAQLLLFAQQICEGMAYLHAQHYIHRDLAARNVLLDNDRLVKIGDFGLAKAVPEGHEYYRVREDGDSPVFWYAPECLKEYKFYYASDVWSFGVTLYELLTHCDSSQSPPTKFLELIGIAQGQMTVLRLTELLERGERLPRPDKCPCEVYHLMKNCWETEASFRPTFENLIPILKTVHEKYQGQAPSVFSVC

| Compound | inhibition [1] [%] | inhibition [2] [%] | inhibition [3] [%] | Selectivity Index (Homo sapiens [4]) | Selectivity Index (Homo sapiens [5]) | inhibition [6] [%] | IC50 [7] [nM] | IC50 [8] [nM] | Ratio IC50 (Homo sapiens [9]) |
| --- | --- | --- | --- | --- | --- | --- | --- | --- | --- |
| Cc1c(-c2ncnc3[nH]ccc23)nnn1Cc1ccc(C(C)(C)C)cc1 | 15 | 3 | 21.6 | – | – | – | – | – | – |
| COc1ccc(Cn2nnc(-c3ncnc4[nH]ccc34)c2C)cc1 | 3 | 5 | 51 | 10.2 | 17 | – | – | – | – |
| Cc1c(-c2ncnc3[nH]ccc23)nnn1Cc1ccccc1OC(F)(F)F | 11.6 | 20.3 | 21.6 | – | – | – | – | – | – |
| Cc1c(-c2ncnc3[nH]ccc23)nnn1Cc1ccc(OC(F)(F)F)cc1 | 13 | -3.7 | 69.5 | – | – | – | – | – | – |
| Cc1c(-c2ncnc3[nH]ccc23)nnn1Cc1ccc(Br)cc1 | 49.3 | 30 | 94 | – | – | 61.6 | 97 | 784 | 8 |
| Cc1c(-c2ncnc3[nH]ccc23)nnn1Cc1ccc(Cl)cc1 | 50 | 36 | 92 | – | – | 67 | 107 | 959 | 9 |
| Cc1c(-c2ncnc3[nH]ccc23)nnn1CCCc1ccccc1 | 10.7 | 11.3 | 48 | 12.3 | 5 | – | – | – | – |
| Cc1c(-c2ncnc3[nH]ccc23)nnn1Cc1ccccc1 | 14 | -9 | 28 | – | – | – | – | – | – |
| Cc1c(-c2ncnc3[nH]ccc23)nnn1Cc1ccc(I)cc1 | 54 | 20.3 | 94 | – | – | 41.3 | 72 | 839 | 12 |

Other lines, results leading:

| inhibition [1] [%] | inhibition [2] [%] | inhibition [3] [%] | Selectivity Index (Homo sapiens [4]) | Selectivity Index (Homo sapiens [5]) | inhibition [6] [%] | IC50 [7] [nM] | IC50 [8] [nM] | Ratio IC50 (Homo sapiens [9]) | Compound |
| --- | --- | --- | --- | --- | --- | --- | --- | --- | --- |
| – | 4 | 12.3 | – | – | – | – | – | – | Cc1ccc(CCn2nnc(-c3ncnc4[nH]ccc34)c2C)cc1 |
| 18.7 | 13.3 | 12.5 | – | – | – | – | – | – | Cc1c(-c2ncnc3[nH]ccc23)nnn1CCc1ccccc1 |
| 8.7 | 35 | 32.7 | – | – | – | – | – | – | Cc1c(-c2ncnc3[nH]ccc23)nnn1CCc1ccc(C(F)(F)F)cc1 |
| 8 | 20.6 | 76.6 | – | – | 2.7 | 386 | > 10000 | – | Cc1c(-c2ncnc3[nH]ccc23)nnn1Cc1ccc(S(C)(=O)=O)cc1 |
| 15 | 7.3 | 69.3 | – | – | – | – | – | – | Cc1c(-c2ncnc3[nH]ccc23)nnn1Cc1ccc(C#N)cc1 |
| – | 0 | 19.3 | – | – | – | – | – | – | Cc1c(-c2ncnc3[nH]ccc23)nnn1Cc1cccc(OC(F)(F)F)c1 |
| 10 | 6 | 74 | 12.3 | 7.4 | – | – | – | – | Cc1ccc(Cn2nnc(-c3ncnc4[nH]ccc34)c2C)cc1 |
| 19.7 | – | 54.7 | – | – | – | – | – | – | Cc1c(-c2ncnc3[nH]ccc23)nnn1CCc1ccc(I)cc1 |
| 39 | 14 | 75 | – | – | – | – | – | – | Cc1c(-c2ncnc3[nH]ccc23)nnn1Cc1ccc(F)cc1 |
| 49.7 | 52 | 61.7 | – | – | – | – | – | – | Cc1c(-c2ncnc3[nH]ccc23)nnn1CCCc1ccc(I)cc1 |
| 3.7 | 20.3 | 17.3 | – | – | – | – | – | – | Cc1c(-c2ncnc3[nH]ccc23)nnn1CCc1ccc(OC(F)(F)F)cc1 |
| 32.7 | -8.7 | 86.7 | – | – | – | – | – | – | Cc1c(-c2ncnc3[nH]ccc23)nnn1Cc1ccc(C(F)(F)F)cc1 |
